For six molecules, IC50 and EC50 results are on record in US11286263B2, “Macrocyclic fluorine substituted indole derivatives” (The Broad Institute, Inc., priority 2017, dated 2022).

The structures appear in SMILES notation. Several values for one entry are separate records, joined by “and”; a condition that tells them apart may be missing. Equal entries are not always repeated. Structures can show the parent of a compound that is named as a salt. Where two headings read alike, the source gives them in different places.

Broadly, the IC50 is the concentration at which inhibition is half-maximal. What is called EC50 is the concentration needed to bring the measured effect to its halfway point.

In one data set the test system is A2780. Kind of data set: Antiproliferation assay A2780 (Assay 7). The class given is cell-based. To be noted: A2780 cells, CellTiter-Glo, single determinations, read-out: IC50 Antiproli A2780. In outline: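 Cells were exposed to compounds for 72 h at 37 °C in a humidified incubator, with rim wells excluded. Viability was read by CellTiter-Glo luminescence after a 10 min incubation. A parallel day 0 plate, read the same way, gave the time-zero baseline.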
For orientation: ATP-based viability assays read luminescence as a measure of living cells.

Data set [1] concerns SUDHL10. Nature of the data set: Induction of caspase-3/7 activity, SUDHL10 (Assay 4). The following applies: SUDHL10 cells. The class given is cell-based. The method in brief:
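DLBCL lines treated with compounds for 3 h at 37° C.; caspase-3/7 activity read by Caspase-Glo 3/7 luminescence. Medium-only background subtracted; EC50 fitted with bottom fixed at 1 and top set to reference compound's maximal induction.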

In the next data set the test system is SUDHL5. Nature of the data set: Induction of cytotoxicity, SUDHL5 (Assay 6). The following applies: read-out: IC50 Cytotox SUDHL5 [M] (median), SUDHL5 cells, 5 h, CellTiter-Glo.
Data set [2] has as its system SUDHL10. Nature of the data set: Induction of cytotoxicity, SUDHL10 (Assay 6). To be noted: read-out: IC50 Cytotox SUDHL10 [M] (median), SUDHL10 cells, 5 h, CellTiter-Glo.
[3] abbreviates: Homo sapiens, SU-DHL10, 3 h, Caspase-Glo 3/7, median.

Regarding `Cc1c2c(nn1C)COCCCCn1c(C(=O)O)c(CCCOc3cccc4ccccc34)c3ccc(F)c-2c31` (racemic) [Example 2, (rac)-4-fluoro-2,3-dimethyl-7-[3-(naphthalen-1-yloxy)propyl]-2,10,11,12,13,15-hexahydro-pyrazolo[4′,3′:9,10][1,6]oxazacycloundecino[8,7,6-hi]indole-8-carboxylic acid], the half-maximal inhibitory concentration (IC50) in the data set with A2780 (72 h, listed as 02) was 12.2 µM and 14.5 µM; in the data set with A2780 (Homo sapiens, A2780, 72 h), 13 µM; with SUDHL5 (Homo sapiens, SU-DHL-5, 5 h) it was 1e-06 M; in the data set on SUDHL10 [2] (Homo sapiens, SU-DHL10, 5 h) it was 1.6e-06 M. Besides, in the data set with SUDHL10 [1] (setting [3]), it took 1.3 µM to reach a half-maximal effect (EC50).

Turning to `Cc1c2c(nn1C)COCCCCn1c(C(=O)O)c(CCCOc3cccc4ccccc34)c3ccc(F)c-2c31` (single isomer, unassigned; enantiomer 1) [Example 3, 4-fluoro-2,3-dimethyl-7-[3-(naphthalen-1-yloxy)propyl]-2,10,11,12,13,15-hexahydropyrazolo-[4′,3′:9,10][1,6]oxazacycloundecino[8,7,6-hi]indole-8-carboxylic acid-N-ethylethanamine salt (enantiomer 1)], the IC50 was 23.8 µM and 17.6 µM and 15.3 µM in the data set on A2780 (72 h, listed as 03); 7.7e-07 M in the data set with SUDHL5; 1.1e-06 M in the data set with SUDHL10 [2] (Homo sapiens, SU-DHL10, 5 h). For the same molecule, the EC50 in the data set with SUDHL10 [1] (setting [3]) was found to be 1.3 µM.

In the case of `CCc1c2c(nn1C)COCCCCn1c(C(=O)O)c(CCCOc3cccc4ccccc34)c3ccc(F)c-2c31` (single isomer, unassigned; enantiomer 1) [Example 7, 3-ethyl-4-fluoro-2-methyl-7-{3-[(naphthalen-1-yl)oxy]propyl}-2,10,11,12,13,15-hexahydro-pyrazolo[4′,3′:9,10][1,6]oxazacycloundecino[8,7,6-hi]indole-8-carboxylic acid-N-ethylethanamine salt (enantiomer 1)], the IC50 in the data set on A2780 (72 h, listed as 07) was 8.84 µM and 13.2 µM; with SUDHL5 it was 4.6e-07 M; in the data set on SUDHL10 [2], 1.3e-06 M. Besides, the EC50 with SUDHL10 [1] (3 h, Caspase-Glo 3/7, median) came out at 1 µM.

With `Cc1c2c(nn1C)COCCCCn1c(C(=O)O)c(CCCOc3cccc4cc(F)ccc34)c3ccc(F)c-2c31` (single isomer, unassigned; enantiomer 1) [Example 13, 4-fluoro-7-{3-[(6-fluoronaphthalen-1-yl)oxy]propyl}-2,3-dimethyl-2,10,11,12,13,15-hexahydro-pyrazolo[4′,3′:9,10][1,6]oxazacycloundecino[8,7,6-hi]indole-8-carboxylic acid-N-ethylethanamine salt (enantiomer 1)], the IC50 in the data set with A2780 (72 h) amounted to 4.11 µM; with SUDHL5, 3.9e-07 M; in the data set on SUDHL10 [2] it was 8e-07 M. In the data set with SUDHL10 [1] (3 h, Caspase-Glo 3/7, median), this molecule registered an EC50 of 0.68 µM.

As for `CCc1c2c(nn1C)COCCCCn1c(C(=O)O)c(CCCOc3ccc(F)c4ccccc34)c3ccc(F)c-2c31` (single isomer, unassigned; enantiomer 1) [Example 27, 3-ethyl-4-fluoro-7-{3-[(4-fluoronaphthalen-1-yl)oxy]propyl}-2-methyl-2,10,11,12,13,15-hexahydropyrazolo[4′,3′:9,10][1,6]oxazacycloundecino[8,7,6-hi]indole-8-carboxylic acid-N-ethylethanamine salt (enantiomer 1)], the concentration for a half-maximal effect (EC50) with SUDHL10 [1] (3 h, Caspase-Glo 3/7, median) was 1.6 µM. For the same molecule, the figures for the half-maximal inhibitory concentration (IC50) with SUDHL5 and in the data set on SUDHL10 [2] were 1e-06 M and 1.8e-06 M, respectively.

On to `CCc1c2c(nn1C)COCCCCn1c(C(=O)O)c(CCCOc3cccc4cc(F)ccc34)c3ccc(F)c-2c31` (single isomer, unassigned; enantiomer 2) [Example 23, 3-ethyl-4-fluoro-7-{3-[(6-fluoronaphthalen-1-yl)oxy]propyl}-2-methyl-2,10,11,12,13,15-hexahydropyrazolo[4′,3′:9,10][1,6]oxazacycloundecino[8,7,6-hi]indole-8-carboxylic acid-N-ethylethanamine salt (enantiomer 2)], for which the midpoint of the response with SUDHL10 [1] (3 h, Caspase-Glo 3/7, median), the EC50, lay at 11 µM. The IC50 is 3.2e-06 M with SUDHL5 and 9e-06 M in the data set on SUDHL10 [2].
